Patent EP0509845A1, “(+) and (-) enantiomers of 5-aliphatic-6-(benzoxazinyl- or benzothiazinyl)-2,3,4,5-tetrahydropyridazin-3-ones” (ORTHO PHARMACEUTICAL CORPORATION, priority 1991, dated 1992)
Like-named read-outs stand apart in the source and are kept apart here.

How the values were obtained:
[1] = test system: human platelet aggregation; experiment: Platelet aggregation in vitro in platelet rich plasma; format: cell-based; details: human PRP
Procedure: The racemate and enantiomeric Bemoradan were tested for their effects in vitro on human platelet aggregation. Platelet rich plasma (PRP) was prepared from human donors who were free of aspirin for the preceding week. Venous blood was collected in sodium citrate vacutainer tubes and PRP was obtained by centrifuging the blood at l000 rpm for 5 min. Compounds were dissolved in methanol and added to 480 µl of PRP in a Chrono-log dual channel aggregometer l min prior to aggregant. Serotonin at 5 µM or ADP at 2 µM were the aggregating agents.

adult mongrel dogs = experiment: Comparative racemate and enantiomer hemodynamic testing in pentobarbital anesthetized open-chest dogs; format: in vivo; details: for CO Percent Change from Control: cardiac output; for CO Percent Change from Control / CF Percent Change from Control / HR Percent Change from Control / LVEDP Percent Change from Control / MAP Percent Change from Control / dP/dtmax Percent Change from Control / RAP Percent Change from Control / SV Percent Change from Control / SW Percent Change from Control / TPR Percent Change from Control: anesthetized open-chest dogs; for CF Percent Change from Control: contractile force; for HR Percent Change from Control: heart rate; for LVEDP Percent Change from Control: left ventricular end diastolic pressure; for MAP Percent Change from Control: mean blood pressure; for dP/dtmax Percent Change from Control: peak rate of rise in left ventricular pressure; for RAP Percent Change from Control: right atrial pressure; for SV Percent Change from Control: stroke volume (CO/HR x 1000); for SW Percent Change from Control: stroke work; for TPR Percent Change from Control: total peripheral resistance
Procedure: Adult mongrel dogs weighing approximately l0-l4 kg were anesthetized with sodium pentobarbital (35 mg/kg, i.p.) and artificially respired. A femoral artery was cannulated to measure mean arterial pressure (MAP) and a femoral vein was cannulated for administering compounds. A Millar microtip pressure transducer was placed in the left ventricle via the left carotid artery to measure left ventricular end diastolic pressure (EDP). pressure pulses triggered a cardiotachometer for determination of heart rate (HR) while the left ventricular pressure waveform was differentiated using a Gould differentiating amplifier to yield dP/dtmax, an index of contractility. A right thoractomy was performed at the fourth intercostal space and the pericardial sac was opened. An externally calibrated Walton-Brodie strain gauge arch was sutured to the right ventricular free wall and stretched to produce a baseline force of approximately l00g. Subsequent changes in right ventricular contractile force (CF) were measured from this baseline. A Carolina electromagnetic flow probe was placed on the ascending aorta to estimate cardiac output (CO). A flexible fluid-filled catheter was inserted into the tip of the right atrium to measure right atrial pressure (RAP). Needle electrodes were placed in the appropriate limbs to record a lead II electrocardiogram (ECG). The following formulas were used to calculate derived parameters: Stroke volume (SV) = CO/HR x l000 Stroke work (SW) = ([…]) x SV Total peripheral resistance (TPR) = (MAP-EDP)/CO
Following surgery and stabilization of hemodynamic parameters, an i.v. infusion of dopamine (l0-l5 µg/kg/min for 3 min) was administered with a Harvard infusion pump to assess responsiveness to positive inotropic stimulation. Baseline hemodynamic values were obtained immediately prior to drug infusion. Responses were continuously monitored on a recorder (Gould 2800) and data collection was facilitated by the use of a Buxco cardiovascular analyzer and data logger.
In the comparative testing a stock solution of each enantiomer (l mg/ml) was prepared fresh daily and diluted before use. Compounds were dissolved in a small volume of dimethylformamide (DMF) and diluted with saline for a final concentration of l5% DMF. Further dilutions were made with a l5% DMF solution.
In the comparative testing each compound was administered in cumulative doses to separate dogs. Data were obtained at the end of each dose. (±) Bemoradan and (+) Bemordan were infused at cumulative doses of 5, l5, 35 and 75 µg/kg, administered with a Harvard infusion pump for 5 minutes each at rates of 0.56, l.l, 2.2, and […], respectively. (-) Bemoradan was given at doses of 5, l5 and 35 µg/kg following the same protocol. The high dose of the (-) isomer was not administered as a means of conserving compound.
Hemodynamic results were expressed as the percent change from pre-drug baseline values and compared using a Dunnett's test with a criterion for significance of p < 0.05. Contractile force ED₄₀ values (i.e., the dose which increased contractile force by 40%) were calculated from dose-response regression lines.

CC1CC(=O)NN=C1c1ccc2c(c1)OCC(=O)N2 (single isomer, unassigned; isomer 6) [(+) isomer, 6-(3,4-dihydro-3-oxo-l,4(2H)-benzoxazin-7-yl)-2,3,4,5-tetrahydro-5-methyl-pyridazin-3-one] was tested, and the IC50 ([1]; ADP at 2 µM, read-out: Antiaggregatory IC50 (µM) vs. ADP) was 3.8 µM, the IC50 ([1]; Serotonin at 5 µM, read-out: Antiaggregatory IC50 (µM) vs. 5-HT) was 8 µM and the IC50 ([1]; Table I summary, ADP at 2 µM as aggregant, read-out: Platelet aggregation (IC50) vs. ADP) was 3.8 µM. The IC50 ([1]; Table I summary, serotonin at 5 µM as aggregant, read-out: Platelet aggregation (IC50) vs. 5-HT (serotonin)) was 8 µM, the “In vivo inotropic ED40, i.v.” value (adult mongrel dogs; Table I summary, dose increasing contractile force by 40%, dogs, i.v.) was 0.0423 mg/kg and the “CO Percent Change from Control” value (adult mongrel dogs; cumulative i.v. dose 5 µg/kg) was 2.0±1.4%. The “CO Percent Change from Control” value (adult mongrel dogs; cumulative i.v. dose 15 µg/kg) was 4.8±2.8%, the “CO Percent Change from Control” value (adult mongrel dogs; cumulative i.v. dose 35 µg/kg) was 10.6±5.9% and the “CO Percent Change from Control” value (adult mongrel dogs; cumulative i.v. dose 75 µg/kg) was 13.4±8.5%. The “CF Percent Change from Control” value (adult mongrel dogs; cumulative i.v. dose 5 µg/kg) was 4.3±2.7%, the “CF Percent Change from Control” value (adult mongrel dogs; cumulative i.v. dose 15 µg/kg) was 11.8±3.3% and the “CF Percent Change from Control” value (adult mongrel dogs; cumulative i.v. dose 35 µg/kg) was 29.5±5.2%. The “CF Percent Change from Control” value (adult mongrel dogs; cumulative i.v. dose 75 µg/kg) was 59.5±7.2%, the “CF ED40 (µg/kg) with 95% F.L.” value (adult mongrel dogs; dose causing a 40% increase in contractility above baseline, from dose-response regression lines, i.v. infusion, dogs) was 42.3 (33.5 - 56.7) µg/kg and the “HR Percent Change from Control” value (adult mongrel dogs; cumulative i.v. dose 5 µg/kg) was -0.7±0.8%. For the same compound, the “HR Percent Change from Control” value (adult mongrel dogs; cumulative i.v. dose 15 µg/kg) was 1.2±0.8%, the “HR Percent Change from Control” value (adult mongrel dogs; cumulative i.v. dose 35 µg/kg) was 4.5±1.0% and the “HR Percent Change from Control” value (adult mongrel dogs; cumulative i.v. dose 75 µg/kg) was 10.6±3.7%. The “LVEDP Percent Change from Control” value (adult mongrel dogs; cumulative i.v. dose 5 µg/kg) was -3.4±3.6%, the “LVEDP Percent Change from Control” value (adult mongrel dogs; cumulative i.v. dose 15 µg/kg) was -4.9±4.8% and the “LVEDP Percent Change from Control” value (adult mongrel dogs; cumulative i.v. dose 35 µg/kg) was -7.4±5.7%. For the same compound, the “LVEDP Percent Change from Control” value (adult mongrel dogs; cumulative i.v. dose 75 µg/kg) was -11.2±7.1%, the “MAP Percent Change from Control” value (adult mongrel dogs; cumulative i.v. dose 5 µg/kg) was -1.4±1.1% and the “MAP Percent Change from Control” value (adult mongrel dogs; cumulative i.v. dose 15 µg/kg) was -1.8±1.7%. The “MAP Percent Change from Control” value (adult mongrel dogs; cumulative i.v. dose 35 µg/kg) was -2.2±2.2%, the “MAP Percent Change from Control” value (adult mongrel dogs; cumulative i.v. dose 75 µg/kg) was -3.8±2.8% and the “dP/dtmax Percent Change from Control” value (adult mongrel dogs; cumulative i.v. dose 5 µg/kg) was 2.8±1.0%. The “dP/dtmax Percent Change from Control” value (adult mongrel dogs; cumulative i.v. dose 15 µg/kg) was 7.3±1.8%, the “dP/dtmax Percent Change from Control” value (adult mongrel dogs; cumulative i.v. dose 35 µg/kg) was 18.9±3.6% and the “dP/dtmax Percent Change from Control” value (adult mongrel dogs; cumulative i.v. dose 75 µg/kg) was 37.0±6.4%. The “RAP Percent Change from Control” value (adult mongrel dogs; cumulative i.v. dose 5 µg/kg) was -10.6±8.5%, the “RAP Percent Change from Control” value (adult mongrel dogs; cumulative i.v. dose 15 µg/kg) was -5.8±9.7% and the “RAP Percent Change from Control” value (adult mongrel dogs; cumulative i.v. dose 35 µg/kg) was -4.2±8.4%. For the same compound, the “RAP Percent Change from Control” value (adult mongrel dogs; cumulative i.v. dose 75 µg/kg) was -21.7±13.3%, the “SV Percent Change from Control” value (adult mongrel dogs; cumulative i.v. dose 5 µg/kg) was 2.5±0.7% and the “SV Percent Change from Control” value (adult mongrel dogs; cumulative i.v. dose 15 µg/kg) was 4.0±2.4%. For the same compound, the “SV Percent Change from Control” value (adult mongrel dogs; cumulative i.v. dose 35 µg/kg) was 6.8±6.1%, the “SV Percent Change from Control” value (adult mongrel dogs; cumulative i.v. dose 75 µg/kg) was 6.1±9.1% and the “SW Percent Change from Control” value (adult mongrel dogs; cumulative i.v. dose 5 µg/kg) was 0.7±1.3%. For the same compound, the “SW Percent Change from Control” value (adult mongrel dogs; cumulative i.v. dose 15 µg/kg) was 1.7±3.5%, the “SW Percent Change from Control” value (adult mongrel dogs; cumulative i.v. dose 35 µg/kg) was 4.4±7.3% and the “SW Percent Change from Control” value (adult mongrel dogs; cumulative i.v. dose 75 µg/kg) was 1.9±9.9%. For the same compound, the “TPR Percent Change from Control” value (adult mongrel dogs; cumulative i.v. dose 5 µg/kg) was -3.6±0.7%, the “TPR Percent Change from Control” value (adult mongrel dogs; cumulative i.v. dose 15 µg/kg) was -6.6±1.7% and the “TPR Percent Change from Control” value (adult mongrel dogs; cumulative i.v. dose 35 µg/kg) was -11.3±3.7%. The “TPR Percent Change from Control” value (adult mongrel dogs; cumulative i.v. dose 75 µg/kg) was -14.4±5.3%.
